This is an account of results in patent publication US9517221B2, “(2R)-2-propyloctanoic acid for functional brain disease” (ONO PHARMACEUTICAL CO., LTD., priority 2006, dated 2016).

Each structure is given as a SMILES string.

One test has as its system Wistar male rats. The test can be described thus: Rat learned helplessness test (Test Example 3). It counts as in vivo. The settings on record: oral once a day for 6 days and 1 hour before shock training on 7th day; present tense. The procedure: A learned helplessness test is carried out using a two way type shuttle box which is divided into two by a gate which can be opened and closed so that shift to right and left is possible. Wistar male rats are used in the test, and a shock training is carried out on the 1st day of the test. The shock training is carried out by putting the rats in the apparatus under an inescapable condition by closing the gate, and applying an electric shock (10 seconds×90 times, intervals of 2 seconds) through a floor grid. In this connection, the rats of the control group are not treated with the electric shock and allowed to stay free in the apparatus for the same period of time. An escape test is carried out after 24 hours of the shock training. The escape test is carried out by putting the rats in the apparatus under an escapable condition by opening the gate, and after 5 minutes of adaptation, by applying a light stimulation and a sound stimulation (conditional stimulation) simultaneously for 5 seconds and subsequently applying an electric shock (no conditional stimulation) for 10 seconds. By regarding a case of no escaping and continuously receiving the electric shock as escape failure, this trial is repeated 40 times (intervals of 5 seconds), and behavior of the rats is analyzed by a behavior analysis software (MED-PC Version 1.16). […]

Test [1] has as its system olfactory bulbectomized rats. The test can be described thus: Influence on hyperemotional score in olfactory bulbectomized rats (Test Example 4-2). Type of test: in vivo, rat. The settings on record: oral once a day for 7 days; present tense. The text has this:
Wistar male rats are used in the test. By fixing the head of each rat under pentobarbital sodium anesthesia to a brain stereotaxic apparatus, the head skin is incised and then holes are opened at right and left olfactory bulb regions using a dental drill to suck and remove the right and left olfactory bulbs using an aspirator. The head skin is stitched thereafter. In this connection, the suction and removal of olfactory bulbs are not carried out in the sham-operation group, and the head skin is stitched after opening holes at right and left olfactory bulb regions. The rats after extraction of the olfactory bulbs are put into a series of five stainless steel cages, each of which is partitioned into two parts with an acrylic board for individual rearing space, and individually reared for 2 weeks under a dark condition, and then subjected to the following tests of <4-2> and <4-3>.
The vehicle and test drug are orally administered once a day repeatedly for 7 days. The evaluation is carried out under a quiet environment, before the grouping and on the 1st and 7th days after administration of the test drug. The degree of irritability is scored in accordance with the evaluation criteria shown below, before the grouping and before the administration of 7 days test drug administration, and after 1 hour of the administration of test drug administration of 1 day and 7 days. […]

The subject of test [2] is olfactory bulbectomized rats. The experiment in a line: Influence upon anxiolytic behavior on an elevated plus maze in olfactory bulbectomized rats (Test Example 4-3). It counts as in vivo, rat. The settings on record: once a day for 8 days; test 2 hours after administration; present tense. The source says:
Wistar male rats are used in the test. By fixing the head of each rat under pentobarbital sodium anesthesia to a brain stereotaxic apparatus, the head skin is incised and then holes are opened at right and left olfactory bulb regions using a dental drill to suck and remove the right and left olfactory bulbs using an aspirator. The head skin is stitched thereafter. In this connection, the suction and removal of olfactory bulbs are not carried out in the sham-operation group, and the head skin is stitched after opening holes at right and left olfactory bulb regions. […]
An elevated plus maze apparatus consisting of a open arm without a wall and a closed arm having a wall is used in the test. […] The anxiolytic behavior is analyzed from the pictures of a video camera by a video picture behavior analysis device.
The vehicle and test drug are repeatedly administered once a day for 8 days. […] After 2 hours of the administration, the animal is softly put on the platform toward one of the open arms and measured for 5 minutes. […] The items (1) to (6) shown below are measured using the video picture behavior analysis device, and (7) and (8) are counted after completion of the measurement. […]

On to `CCCCCC[C@@H](CCC)C(=O)O` [(2R)-2-propyloctanoic acid], for which the “Number of escape failures versus vehicle treating group” value in the test on Wistar male rats is “inhibits increase of the number of escape failures”. The “Development of hyperemotionality versus vehicle group” value in test [1] is “inhibits development of hyperemotionality”. Besides, the “Anxiolytic behavior versus vehicle treating group” value in test [2] was “suppresses the anxiolytic behavior”.
